Measurements reported in the supplement of paper PMC6723410.

Tested on: GUMC-403
Experiment: viability at highest tested concentration (max response) relative to DMSO (% of DMSO control); higher = less cytotoxic
Conditions: library / dose series: MIPE library, 11-point 1:3 dilution; top concentration 23 µM; 48 h
Procedure, shortened: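 Each figure stands for viability at the highest tested concentration compared with vehicle control. It was measured by CellTiter-Glo luminescence on a ViewLux after 48 h of exposure to 23 nL of pinned compound, with vehicle wells taken as 100% and empty wells as 0%. The cells were patient-derived GUMC-403 papilloma cells grown by conditional reprogramming, plated at 700/well in 5 μL F + Y medium in 1536-well plates.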

Point of comparison: O=P(O)(O)C(O)(Cn1ccnc1)P(=O)(O)O, viability 122. Against it:
- CC(C)Cc1ccc(C(C)C(=O)O)cc1 (configuration not stated) — lower, 103
- C[C@]12CC(=O)[C@H]3[C@@H](CC\C4=C\C(=O)\C=C/[C@]34C)[C@@H]1CC[C@]2(O)C(=O)CO — higher, 131

Same assay, conditions: library / dose series: MIPE library, 11-point 1:3 dilution; top concentration 46.1 µM; 48 h

Point of comparison: CN(C)c1cc(NC(=O)CNC(C)(C)C)c(O)c2c1C[C@H]1C[C@H]3[C@H](N(C)C)C(O)=C(C(N)=O)C(=O)[C@@]3(O)C(O)=C1C2=O, viability 110. Against it:
- CC1COC2=C3N1\C=C(C(O)=O)/C(=O)C3=CC(=C2N4CCN(C)CC4)F (configuration not stated) — lower, 105
- O=C/1\C=C(/OC(=C1)/C2=C3SC4=C(SC3=CC=C2)C=CC=C4)N5CCOCC5 — higher, 111
- COc1ccc(C(=O)N2CCCC2=O)cc1 — higher, 119
- CO[C@H]1C[C@@H]2CC[C@@H](C)[C@@](O)(O2)C(=O)C(=O)N2CCCC[C@H]2C(=O)O[C@H]([C@H](C)C[C@@H]2CC[C@@H](OCCO)[C@H](OC)C2)CC(=O)[C@H](C)/C=C(/C)[C@@H](O)[C@@H](OC)C(=O)[C@H](C)C[C@H](C)\C=C/C=C\C=C/1C — lower, 84.8
- Cc1ccc(Nc2nccc(N(C)c3ccc4c(C)n(C)nc4c3)n2)cc1[S+](N)(=O)[O-] — higher, 117
- Cc1ccc(C(=O)c2cc(O)c(O)c([N+](=O)[O-])c2)cc1 — lower, 102
- O=C(O)c1ccc2cc(-c3ccc(O)c(C45CC6CC(CC(C6)C4)C5)c3)ccc2c1 — lower, 109
- COc1ccc(-c2cc3nccn3c(Nc3ncccc3C(N)=O)n2)cc1OC — lower, 107
- O=C(Nc1nnc(-c2ccco2)o1)c1cc(-c2ccccc2)nc2ccccc12 — lower, 89.1
- OC1=CC2=C(C(=C1)O)C(=O)\C(=C(/O2)C3=CC(=C(O)C=C3)O)O — higher, 147
- Cc1cc(C(=O)N2CCN(c3cccc(Cl)c3)CC2)n(-c2ccccc2)n1 — lower, 101
- N#C[C@@H]1C[C@@H]2C[C@@H]2N1C(=O)[C@@H](N)C12CC3CC(CC(O)(C3)C1)C2 — higher, 111
- Cc1cn([C@@H]2O[C@H](CO)[C@@H](O)[C@@H]2F)c(=O)[nH]c1=O — higher, 128
- CC(C)(C)C(=O)OCOP(=O)(COCCn1cnc2c(N)ncnc21)OCOC(=O)C(C)(C)C — lower, 93
- OC[C@H]1O[C@H]([C@H](O)[C@@H]1O)N2\C=C/C(=O)NC2=O — higher, 121
- COc1ccc2[nH]c([S+]([O-])Cc3ncc(C)c(OC)c3C)nc2c1 (configuration not stated) — lower, 88.8
- O=C(O)C(=O)c1cn(Cc2ccccc2)c2ccc(-c3ccc(OC(F)(F)F)cc3)cc12 — higher, 111
- CC[C@H]1OC(=O)[C@H](C)[C@@H](O[C@H]2C[C@@](C)(OC)[C@@H](O)[C@H](C)O2)[C@H](C)[C@@H](O[C@@H]2O[C@H](C)C[C@H](N(C)C)[C@H]2O)[C@](C)(O)C[C@@H](C)/C(=N\OCOCCOC)[C@H](C)[C@@H](O)[C@]1(C)O — lower, 83.3
- Cc1csc(-c2nnc(Nc3ccc(Oc4ncccc4-c4ccnc(N)n4)cc3)c3ccccc23)c1 — lower, 101
- COC1=CC2=C(C=C1OC)[C@H]3[C@@H](CO2)OC4=C(C=CC5=C4\C=C/C(C)(C)O5)C3=O — higher, 115
- O=C(Nc1ccc(F)c(C(F)(F)F)c1)Nc1nnc(-c2ccncc2)s1 — lower, 94
- O=C(NCc1ccccc1)[C@H](Cc1ccccc1)NC(=O)[C@H]1O[C@@H]1C(=O)NCCc1ccc(O)cc1 — lower, 107
- C=CCn1c(=O)c2cnc(Nc3ccc(N4CCN(C)CC4)cc3)nc2n1-c1cccc(C(C)(C)O)n1 — lower, 63.1
- CCOc1ccc(Nc2nc(-c3c(C)nc4ccccn34)cs2)cc1 — lower, 101
- CC[C@@H]([C@H](C)O)n1ncn(-c2ccc(N3CCN(c4ccc(OCC5CO[C@@](Cn6cncn6)(c6ccc(F)cc6F)C5)cc4)CC3)cc2)c1=O (some centres not stated) — lower, 101
- COC(=O)C1C2CC3c4[nH]c5cc(OC)ccc5c4CCN3CC2CC(OC(=O)c2cc(OC)c(OC)c(OC)c2)C1OC (configuration not stated) — lower, 101
- Oc1ccc2c3c1O[C@H]1c4[nH]c5c(c4C[C@@]4(O)[C@@H](C2)N(CC2CC2)CC[C@]314)C[C@@]1(O)[C@H]2Cc3ccc(O)c4c3[C@@]1(CCN2CC1CC1)[C@H]5O4 — higher, 142
- OC[C@H]1O[C@@H](O[C@@H]2[C@@H](CO)O[C@](O)(CO)[C@H]2O)[C@H](O)[C@@H](O)[C@H]1O — lower, 95.3
- CC(=O)OCC(=O)[C@@]12\N=C(C)/O[C@@H]1C[C@H]3[C@@H]4CCC/5=C/C(=O)/C=C\[C@]5(C)[C@H]4[C@@H](O)C[C@]23C — higher, 112
- CC1(C)O[C@@H]2C[C@H]3[C@@H]4CCC5=CC(=O)C=C[C@]5(C)[C@@]4(F)[C@@H](O)C[C@]3(C)[C@]2(C(=O)CO)O1 — higher, 117
- O=C(CO)N1CCC(c2n[nH]c(-c3ccc(Cl)cc3)c2-c2ccncn2)CC1 — lower, 109
- Cc1c(N)nc([C@H](CC(N)=O)NC[C@@H](N)C(N)=O)nc1C(=O)N[C@H](C(=O)N[C@@H](C)[C@H](O)[C@@H](C)C(=O)N[C@@H](C(=O)NCCc1nc(-c2nc(C(=O)NCCC[S+](C)C)cs2)cs1)[C@@H](C)O)C(O[C@H]1O[C@H](CO)[C@H](O)[C@@H](O)[C@H]1O[C@H]1O[C@H](CO)[C@@H](O)[C@H](OC(N)=O)[C@@H]1O)c1c[nH]cn1 (some centres not stated) — lower, 84.5
- O=C1NC(=O)[C@@H](c2cn3c4c(cccc24)CCC3)[C@@H]1c1c[nH]c2ccccc12 — lower, 102
- C\C1=C(\C=C(\C#N)C(=O)N1)C2=CC=NC=C2 — higher, 119
- CN(C)Cc1cccc(N/C(=C2\C(=O)Nc3cc(C(=O)N(C)C)ccc32)c2ccccc2)c1 — lower, 95.1
- CN(C)/[N+]([O-])=N/Oc1cc(ON[N+](=O)N2CCN(C(=O)c3cc(Cc4n[nH]c(=O)c5ccccc45)ccc3F)CC2)c([N+](=O)[O-])cc1[N+](=O)[O-] — lower, 108
- CC(C)c1cnn2c(NCc3ccccc3)cc(NCCCCCCN)nc12 — lower, 72.8
- CC\1=C(C(\N=C(/N1)C2=CC(=NC=C2)Cl)C3=C(F)C=C(Cl)C=C3)/C(=O)NC4=C(F)C=C5[NH]N=CC5=C4 (configuration not stated) — lower, 101
- NC/1=N/C(=O)N(/C=C1)[C@H]2CC[C@@H](CO)O2 — lower, 84.4
- COc1c(C)c2c(c(O)c1C/C=C(\C)CCC(=O)OCCN1CCOCC1)C(=O)OC2 — higher, 112
- CCCCNc1cc(C(=O)O)cc([S+](N)(=O)[O-])c1Oc1ccccc1 — higher, 138
- O=C1Nc2ccccc2/C1=C1\Nc2ccccc2C1=O — lower, 104
- COc1ccc(C2CNC(=O)C2)cc1OC1CCCC1 (configuration not stated) — higher, 136
- N=C(N)c1ccc(OCCCCCOc2ccc(C(=N)N)cc2)cc1 — lower, 101
- OCCNC1CCCc2c1[nH]c1ccc(-c3ccccc3)cc21 (configuration not stated) — lower, 107
- C[C@@H]1C[C@H]2[C@@H]3\C=C(C)/C4=C/C5=C(C[C@]4(C)[C@H]3[C@@H](O)C[C@]2(C)[C@@]1(O)C(=O)COC(C)=O)C=N[N]5C6=CC=CC=C6 — lower, 107
- CC[C@H]1OC(=O)[C@H](C)[C@@H](O[C@H]2C[C@@](C)(OC)[C@@H](O)[C@H](C)O2)[C@H](C)[C@@H](O[C@@H]2O[C@H](C)C[C@H](N(C)C)[C@H]2O)[C@](C)(O)C[C@@H](C)CN(C)[C@H](C)[C@@H](O)[C@]1(C)O — lower, 109
- O=C1[O][Pt]2([NH]C3CCCCC3[NH]2)[O]C1=O (configuration not stated) — higher, 113
- CCC(=O)OCC(=O)[C@@]1(OC(=O)CC)[C@@H](C)C[C@H]2[C@@H]3CCC4=CC(=O)C=C[C@]4(C)[C@@]3(F)[C@@H](O)C[C@@]21C — higher, 120
- CC1(C)[C@H](C(=O)O)N2C(=O)C[C@H]2[S+]1(=O)[O-] — lower, 106
- C[C@]12CC[C@H]3[C@@H](CCC/4=C/C(=O)CC[C@]34C)[C@@H]1CC[C@@H]2O — higher, 112
- Cc1cccc(C#Cc2ccccc2)n1 — lower, 101
- O=C(O[C@H]1C[C@H]2CC[C@@H](C1)[N+]21CCCC1)C(O)(c1ccccc1)c1ccccc1.[Cl-] — higher, 140
- O=C1CC[C@@]2(O)[C@H]3Cc4ccc(O)c5c4[C@@]2(CCN3CC2CC2)[C@H]1O5 — higher, 137
- CO[C@@H]1[C@@H](OC(N)=O)[C@@H](O)[C@H](OC2=CC=C3\C(=C(NC(=O)C4=CC=C([O-])C(=C4)CC=C(C)C)/C(=O)OC3=C2C)O)OC1(C)C — lower, 108
- C=C(C)[C@@H]1CC[C@]2(C(=O)O)CC[C@]3(C)[C@H](CC[C@@H]4[C@@]5(C)CC[C@H](O)C(C)(C)[C@@H]5CC[C@]43C)[C@@H]12 — lower, 94.5
- O=c1[nH]c2ccccc2n1CCCN1CCC(n2c(=O)[nH]c3cc(Cl)ccc32)CC1 — higher, 130
- COC1=CC=C(C=C1)C2CC(=N/N2C3=CC=C(C=C3)[S+](N)([O-])=O)\C4=CC=CC=C4 (configuration not stated) — higher, 137
- CC(C)C(=O)Oc1ccc(CO)cc1[C@H](CCN(C(C)C)C(C)C)c1ccccc1 — lower, 84.7
- CN1CCN(CC1)C/2=N/C3=CC=CC=C3NC4=C2C=C(C)S4 — higher, 117
- CN(C)CCC=C1C2=C(C=CC=C2)\C=C/C3=C1C=CC=C3 — higher, 115
- CCC(c1ccc(O)cc1)C(CC)c1ccc(O)cc1 (configuration not stated) — higher, 116
- CCOC(CN1C(=O)[C@](CC(=O)Nc2ccc(C)cc2)(NC(=O)Nc2ccc(C)cc2)c2ccccc21)OCC — higher, 129
- C[C@H]1[C@H](NC(=O)/C(=N/OC(C)(C)C(=O)O)c2csc(N)n2)C(=O)N1[S+](=O)([O-])O — higher, 114
- C[C@H]1C[C@H]2[C@@H]3CC[C@](O)(C(=O)CO)[C@@]3(C)C[C@H](O)[C@@H]2[C@@]\4(C)/C=C\C(=O)\C=C14 — higher, 121
- O=C1Nc2cc(Br)ccc2/C1=C1/Nc2ccccc2/C1=N\O — lower, 31.3
- O=C(Nc1cccnc1)N1CCC(Cc2cccc(Oc3ccc(C(F)(F)F)cn3)c2)CC1 — higher, 112
- CO[C@@H]1C(N(C)C(=O)c2ccccc2)C[C@H]2O[C@]1(C)n1c3ccccc3c3c4c(c5c6ccccc6n2c5c31)C(=O)NC4=O (some centres not stated) — lower, 76.6
